The source made the active and inactive calls.
What was measured:
[1] = molecular target: Mitogen-activated protein kinase 10 (Homo sapiens, UniProt P53779); assay: Dose response biochemical screening assay for inhibitors of c-Jun N-Terminal Kinase 3 (JNK3). [Related pubchem assays: 746 ]
[2] = molecular target: Metabotropic glutamate receptor 7 (Homo sapiens, UniProt Q14831); assay: mGlu7 positive allosteric modulators, dose response, cell-based, calcium mobilization, Galpha15 (AID 743384); type: functional
Nonstructural protein 1 = Nonstructural protein 1 (Influenza A virus, UniProt Q194T2); type: functional, Influenza A virus (A/California/07/2009(H1N1))
cells = type: functional, cell-based
[3] = molecular target: T1, Nuclear receptor subfamily 0 group B member 1 (Homo sapiens, UniProt P51843); type: functional, cell-based;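 note: HEK293T cells transfected with SF-1 and DAX-1 plus StAR promoter luciferase reporter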
T1 sequence (P51843 whole entry): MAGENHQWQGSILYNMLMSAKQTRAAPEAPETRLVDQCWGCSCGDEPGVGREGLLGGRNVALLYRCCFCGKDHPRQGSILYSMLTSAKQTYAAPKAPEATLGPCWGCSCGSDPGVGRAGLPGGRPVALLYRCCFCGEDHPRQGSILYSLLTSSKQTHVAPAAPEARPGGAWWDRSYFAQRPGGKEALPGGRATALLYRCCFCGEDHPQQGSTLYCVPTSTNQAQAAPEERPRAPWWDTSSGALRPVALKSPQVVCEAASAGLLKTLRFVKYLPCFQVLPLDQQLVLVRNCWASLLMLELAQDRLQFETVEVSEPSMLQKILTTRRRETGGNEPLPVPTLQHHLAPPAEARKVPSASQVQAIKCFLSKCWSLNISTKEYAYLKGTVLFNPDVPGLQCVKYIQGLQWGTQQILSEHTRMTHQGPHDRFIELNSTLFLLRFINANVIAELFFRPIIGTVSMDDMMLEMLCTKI

Protein Tat = Protein Tat (Human immunodeficiency virus type 1 group M subtype B (isolate HXB2)(HIV-1), UniProt P04608); type: functional;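 note: tat binding to TAR RNA read out by fluorescence polarization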
[4] = molecular target: Glutathione-S-transferase (Schistosoma japonicum, UniProt Q26513); assay: biotin-GST/anti-GST TR-FRET signal inhibitors, dose response, artefact control for Vif-APOBEC3G degradation inhibitor project, biochemical (AID 1117362); type: functional
Large T antigen = Large T antigen (Simian virus 40, UniProt P03070); type: functional, Betapolyomavirus macacae;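 note: Confirmatory-stage PubChem screen for compounds that inhibit SV40 T antigen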
[5] = Dose-response inhibition of insulin secretion in a rat insulinoma line at 5 mM glucose (AID 1117331); type: functional, cell-based; conditions: INS-1E
[6] = half-maximal inhibitory concentration for glucagon-like peptide-1 release, STC-1 cell line, dose-response (AID 1117345); type: functional, cell-based
[7] = Glucagon-like peptide 1 release potency, NCI-H716 cell line, dose-response, half-maximal inhibitory concentration (AID 1117344); type: functional, cell-based
[8] = molecular target: T2, Mannose-6-phosphate isomerase (Homo sapiens, UniProt P34949); assay: human PMI inhibitors, high substrate, primary screen, biochemical, fluorescence intensity, high mannose 6-phosphate (AID 1220)
T2 sequence (P34949 whole entry): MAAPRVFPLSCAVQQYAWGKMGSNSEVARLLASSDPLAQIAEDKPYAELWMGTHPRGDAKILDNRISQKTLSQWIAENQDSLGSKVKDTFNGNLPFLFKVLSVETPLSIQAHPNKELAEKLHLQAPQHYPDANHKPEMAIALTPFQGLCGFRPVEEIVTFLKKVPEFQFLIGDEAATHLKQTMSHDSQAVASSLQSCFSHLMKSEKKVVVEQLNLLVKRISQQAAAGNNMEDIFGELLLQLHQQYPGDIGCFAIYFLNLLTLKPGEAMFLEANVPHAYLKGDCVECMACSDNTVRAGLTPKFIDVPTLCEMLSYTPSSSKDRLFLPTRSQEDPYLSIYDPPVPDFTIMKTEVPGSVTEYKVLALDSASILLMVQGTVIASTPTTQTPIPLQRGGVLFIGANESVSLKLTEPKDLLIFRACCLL

D(3) dopamine receptor = D(3) dopamine receptor (Homo sapiens, UniProt P35462); assay: Counterscreening of D4 Antagonists against Dopamine 3 DRD3 (Human), Confirmatory Assay.; type: functional
D(1A) dopamine receptor = D(1A) dopamine receptor (Homo sapiens, UniProt P21728); assay: Counterscreening of D4 Antagonists against Dopamine 1 (Human), Confirmatory Assay.; type: functional
D(1B) dopamine receptor = D(1B) dopamine receptor (Homo sapiens, UniProt P21918); assay: Counterscreening of D4 Antagonists against Dopamine 5 DRD5 (Human), Confirmatory Assay.; type: functional
D(2) dopamine receptor = D(2) dopamine receptor (Homo sapiens, UniProt P14416); assay: Counterscreening of D4 Antagonists against Dopamine 2S (Human), Confirmatory Assay.; type: functional
Leucine aminopeptidase = molecular target: T3, Leucine aminopeptidase (Plasmodium falciparum 3D7, UniProt Q8IL11); assay: P. falciparum M17LAP inhibitors, primary screen, biochemical, fluorogenic H-Leu-NHMec substrate, 1536-well (AID 1619); type: functional
T3 sequence (Q8IL11 whole entry): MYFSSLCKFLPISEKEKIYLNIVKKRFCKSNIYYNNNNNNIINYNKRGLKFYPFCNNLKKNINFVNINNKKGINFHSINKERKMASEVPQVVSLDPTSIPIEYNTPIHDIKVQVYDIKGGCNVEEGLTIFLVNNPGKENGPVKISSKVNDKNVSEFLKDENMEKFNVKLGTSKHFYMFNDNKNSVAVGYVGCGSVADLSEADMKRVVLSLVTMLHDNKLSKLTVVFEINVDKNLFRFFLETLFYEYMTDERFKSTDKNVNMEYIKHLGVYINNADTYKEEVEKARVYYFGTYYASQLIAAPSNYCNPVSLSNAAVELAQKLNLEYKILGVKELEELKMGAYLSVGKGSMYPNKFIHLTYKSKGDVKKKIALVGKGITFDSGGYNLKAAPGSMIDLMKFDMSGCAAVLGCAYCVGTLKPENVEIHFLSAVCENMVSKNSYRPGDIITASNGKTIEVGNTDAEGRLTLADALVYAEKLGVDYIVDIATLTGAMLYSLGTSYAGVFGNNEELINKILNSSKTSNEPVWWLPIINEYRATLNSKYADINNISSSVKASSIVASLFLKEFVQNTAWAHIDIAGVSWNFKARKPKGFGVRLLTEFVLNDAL

Aspartyl aminopeptidase = molecular target: T4, Aspartyl aminopeptidase (Plasmodium falciparum 3D7, UniProt Q8I2J3); assay: Counterscreen for inhibitors of M1 and M17 aminopeptidases: QFRET-based biochemical high throughput dose response assay for inhibitors of the Plasmodium falciparum M18 Aspartyl Aminopeptidase (PFM18AAP). [Related PubChem assays: 1619 (Screening assay (M17LAP inhibitors).), 1445 (Screening assay (M1AAP inhibitors).)]
T4 sequence (Q8I2J3 whole entry): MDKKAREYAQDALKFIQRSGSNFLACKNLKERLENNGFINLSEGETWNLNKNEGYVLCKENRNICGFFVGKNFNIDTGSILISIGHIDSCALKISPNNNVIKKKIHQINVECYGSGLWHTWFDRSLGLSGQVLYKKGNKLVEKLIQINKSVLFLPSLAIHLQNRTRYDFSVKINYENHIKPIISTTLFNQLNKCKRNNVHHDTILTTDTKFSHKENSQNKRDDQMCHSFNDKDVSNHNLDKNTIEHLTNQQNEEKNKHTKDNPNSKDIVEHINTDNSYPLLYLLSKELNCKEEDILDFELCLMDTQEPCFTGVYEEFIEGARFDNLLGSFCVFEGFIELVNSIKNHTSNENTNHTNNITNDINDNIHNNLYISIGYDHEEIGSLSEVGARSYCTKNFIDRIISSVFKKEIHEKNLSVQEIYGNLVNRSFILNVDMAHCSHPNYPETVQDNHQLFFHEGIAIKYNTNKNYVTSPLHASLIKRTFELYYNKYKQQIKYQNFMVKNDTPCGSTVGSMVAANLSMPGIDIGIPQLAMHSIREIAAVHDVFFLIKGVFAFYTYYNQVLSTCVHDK

Procathepsin L = Procathepsin L (Homo sapiens, UniProt P07711); assay: cathepsin L inhibitors, dose response, counter-screen for M1/M17 aminopeptidase inhibitor project, biochemical, QFRET, 1536-well (AID 2214)
[9] = molecular target: Solute carrier family 12 member 2/member 5 (Homo sapiens, UniProt P55011+Q9H2X9); assay: KCC2 and NKCC1 inhibition by rubidium flux, cell-based, NKCC1 counter-screen (AID 1734); type: functional, HEK293

Glutathione-S-transferase, sequence (Q26513 whole entry): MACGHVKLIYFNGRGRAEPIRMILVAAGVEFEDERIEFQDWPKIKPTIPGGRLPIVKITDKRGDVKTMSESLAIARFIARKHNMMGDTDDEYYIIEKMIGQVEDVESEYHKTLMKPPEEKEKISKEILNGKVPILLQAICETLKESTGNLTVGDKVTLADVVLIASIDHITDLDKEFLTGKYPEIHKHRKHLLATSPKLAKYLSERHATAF
Mitogen-activated protein kinase 10, sequence (P53779 whole entry): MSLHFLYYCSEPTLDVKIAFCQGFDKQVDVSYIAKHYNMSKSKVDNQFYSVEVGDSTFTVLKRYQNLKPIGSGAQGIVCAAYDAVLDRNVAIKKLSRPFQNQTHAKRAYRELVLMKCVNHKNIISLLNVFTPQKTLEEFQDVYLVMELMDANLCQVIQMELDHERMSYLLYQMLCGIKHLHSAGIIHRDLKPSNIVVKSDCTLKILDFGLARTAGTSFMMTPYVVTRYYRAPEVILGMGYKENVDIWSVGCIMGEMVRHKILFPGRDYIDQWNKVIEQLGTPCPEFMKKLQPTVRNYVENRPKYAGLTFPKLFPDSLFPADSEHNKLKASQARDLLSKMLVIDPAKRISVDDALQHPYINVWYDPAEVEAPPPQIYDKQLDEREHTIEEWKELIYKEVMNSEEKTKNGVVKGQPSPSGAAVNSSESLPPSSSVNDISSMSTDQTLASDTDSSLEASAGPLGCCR
D(2) dopamine receptor, sequence (P14416 whole entry): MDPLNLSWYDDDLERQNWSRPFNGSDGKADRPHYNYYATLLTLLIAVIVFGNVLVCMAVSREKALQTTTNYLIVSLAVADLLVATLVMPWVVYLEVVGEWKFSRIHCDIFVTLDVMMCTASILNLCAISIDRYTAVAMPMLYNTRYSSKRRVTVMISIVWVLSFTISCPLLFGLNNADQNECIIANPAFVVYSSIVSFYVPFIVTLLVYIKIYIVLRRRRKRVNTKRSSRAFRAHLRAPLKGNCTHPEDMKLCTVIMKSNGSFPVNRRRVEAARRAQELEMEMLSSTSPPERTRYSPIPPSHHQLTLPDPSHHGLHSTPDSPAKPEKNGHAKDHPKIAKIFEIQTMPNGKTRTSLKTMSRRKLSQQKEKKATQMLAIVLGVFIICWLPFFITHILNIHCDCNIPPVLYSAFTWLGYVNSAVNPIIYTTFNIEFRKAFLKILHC
D(1B) dopamine receptor, sequence (P21918 whole entry): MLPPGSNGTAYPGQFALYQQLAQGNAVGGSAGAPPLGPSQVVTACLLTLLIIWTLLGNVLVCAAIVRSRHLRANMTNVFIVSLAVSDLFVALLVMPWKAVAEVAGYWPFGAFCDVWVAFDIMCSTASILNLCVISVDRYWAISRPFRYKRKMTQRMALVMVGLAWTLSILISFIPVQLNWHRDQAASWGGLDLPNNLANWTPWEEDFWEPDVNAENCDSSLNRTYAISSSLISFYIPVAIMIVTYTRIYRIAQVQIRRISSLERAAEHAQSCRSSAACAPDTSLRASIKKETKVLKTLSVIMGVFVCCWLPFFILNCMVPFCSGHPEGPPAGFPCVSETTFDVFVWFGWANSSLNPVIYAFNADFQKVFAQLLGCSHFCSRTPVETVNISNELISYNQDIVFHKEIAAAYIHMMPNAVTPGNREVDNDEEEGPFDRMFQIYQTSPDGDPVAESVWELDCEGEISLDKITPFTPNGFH
Protein Tat, sequence (P04608 whole entry): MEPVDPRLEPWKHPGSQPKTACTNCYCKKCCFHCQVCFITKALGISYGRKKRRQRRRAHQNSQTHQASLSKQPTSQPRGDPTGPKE
Procathepsin L, sequence (P07711 whole entry): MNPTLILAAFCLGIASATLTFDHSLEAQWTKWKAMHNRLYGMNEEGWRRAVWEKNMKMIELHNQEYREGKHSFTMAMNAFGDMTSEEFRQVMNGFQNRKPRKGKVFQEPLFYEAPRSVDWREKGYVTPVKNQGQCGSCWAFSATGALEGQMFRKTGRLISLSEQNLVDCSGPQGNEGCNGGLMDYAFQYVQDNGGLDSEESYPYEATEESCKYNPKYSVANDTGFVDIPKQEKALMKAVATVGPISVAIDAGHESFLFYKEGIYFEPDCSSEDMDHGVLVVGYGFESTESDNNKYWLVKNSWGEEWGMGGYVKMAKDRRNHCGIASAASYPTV
Large T antigen, sequence (P03070 whole entry): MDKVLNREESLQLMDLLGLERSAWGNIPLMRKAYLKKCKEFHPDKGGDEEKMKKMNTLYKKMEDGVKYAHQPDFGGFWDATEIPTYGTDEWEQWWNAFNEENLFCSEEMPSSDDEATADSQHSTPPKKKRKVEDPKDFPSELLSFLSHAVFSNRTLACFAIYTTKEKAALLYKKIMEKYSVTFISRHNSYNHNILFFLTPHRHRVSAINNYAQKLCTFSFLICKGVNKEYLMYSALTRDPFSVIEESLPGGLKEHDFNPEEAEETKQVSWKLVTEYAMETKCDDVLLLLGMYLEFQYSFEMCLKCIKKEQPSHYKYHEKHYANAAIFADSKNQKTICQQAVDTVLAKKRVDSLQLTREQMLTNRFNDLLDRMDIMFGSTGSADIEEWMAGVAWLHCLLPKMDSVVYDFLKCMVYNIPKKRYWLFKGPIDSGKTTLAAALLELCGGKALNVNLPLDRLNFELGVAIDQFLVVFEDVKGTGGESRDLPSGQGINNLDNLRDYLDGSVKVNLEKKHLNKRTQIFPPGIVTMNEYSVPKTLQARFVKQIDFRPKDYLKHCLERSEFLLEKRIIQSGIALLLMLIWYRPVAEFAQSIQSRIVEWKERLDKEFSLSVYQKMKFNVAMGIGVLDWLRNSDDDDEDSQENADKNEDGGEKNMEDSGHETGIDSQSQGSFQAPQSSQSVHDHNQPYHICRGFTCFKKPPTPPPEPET
Metabotropic glutamate receptor 7, sequence (Q14831 whole entry): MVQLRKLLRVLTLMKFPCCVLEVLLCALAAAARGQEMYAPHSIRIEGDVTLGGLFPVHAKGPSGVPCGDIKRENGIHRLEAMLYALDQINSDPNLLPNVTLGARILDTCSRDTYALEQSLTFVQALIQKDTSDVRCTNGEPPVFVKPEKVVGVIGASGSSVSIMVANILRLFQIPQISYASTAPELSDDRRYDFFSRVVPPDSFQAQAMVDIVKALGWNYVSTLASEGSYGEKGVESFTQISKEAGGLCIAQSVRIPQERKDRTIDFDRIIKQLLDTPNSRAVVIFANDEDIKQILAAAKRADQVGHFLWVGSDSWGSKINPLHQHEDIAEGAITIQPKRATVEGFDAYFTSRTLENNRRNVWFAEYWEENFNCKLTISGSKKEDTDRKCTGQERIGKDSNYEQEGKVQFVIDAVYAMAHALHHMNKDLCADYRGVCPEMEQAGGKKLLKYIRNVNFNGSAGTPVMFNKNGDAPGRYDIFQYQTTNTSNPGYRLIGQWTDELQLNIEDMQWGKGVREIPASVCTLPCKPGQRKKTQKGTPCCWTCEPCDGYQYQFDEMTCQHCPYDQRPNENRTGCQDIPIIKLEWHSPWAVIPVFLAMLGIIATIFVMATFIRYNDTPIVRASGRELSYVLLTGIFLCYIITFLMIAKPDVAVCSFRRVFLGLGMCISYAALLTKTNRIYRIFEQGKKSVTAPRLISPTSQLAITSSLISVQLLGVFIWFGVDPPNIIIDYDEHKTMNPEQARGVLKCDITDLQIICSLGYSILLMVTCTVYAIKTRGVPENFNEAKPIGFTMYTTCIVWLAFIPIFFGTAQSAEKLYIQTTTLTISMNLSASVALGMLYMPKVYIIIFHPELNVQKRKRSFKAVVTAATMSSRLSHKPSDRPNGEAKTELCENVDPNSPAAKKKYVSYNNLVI
Nonstructural protein 1, sequence (Q194T2 whole entry): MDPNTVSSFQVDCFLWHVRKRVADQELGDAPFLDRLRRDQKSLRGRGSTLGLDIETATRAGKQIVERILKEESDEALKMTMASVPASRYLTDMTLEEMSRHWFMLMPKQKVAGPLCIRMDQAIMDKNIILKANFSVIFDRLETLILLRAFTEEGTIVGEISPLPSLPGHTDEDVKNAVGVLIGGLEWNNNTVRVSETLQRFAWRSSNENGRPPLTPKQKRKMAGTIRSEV
D(3) dopamine receptor, sequence (P35462 whole entry): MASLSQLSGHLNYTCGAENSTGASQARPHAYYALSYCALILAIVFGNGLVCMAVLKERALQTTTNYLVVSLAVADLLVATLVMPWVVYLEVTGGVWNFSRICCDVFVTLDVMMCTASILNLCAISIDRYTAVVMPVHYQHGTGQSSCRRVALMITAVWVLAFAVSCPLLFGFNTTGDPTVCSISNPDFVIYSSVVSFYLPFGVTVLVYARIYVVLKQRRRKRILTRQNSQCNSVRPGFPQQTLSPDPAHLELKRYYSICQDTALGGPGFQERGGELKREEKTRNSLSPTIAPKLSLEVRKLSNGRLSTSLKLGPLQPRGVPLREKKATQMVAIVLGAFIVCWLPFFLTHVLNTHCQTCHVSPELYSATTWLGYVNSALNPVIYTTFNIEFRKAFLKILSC
D(1A) dopamine receptor, sequence (P21728 whole entry): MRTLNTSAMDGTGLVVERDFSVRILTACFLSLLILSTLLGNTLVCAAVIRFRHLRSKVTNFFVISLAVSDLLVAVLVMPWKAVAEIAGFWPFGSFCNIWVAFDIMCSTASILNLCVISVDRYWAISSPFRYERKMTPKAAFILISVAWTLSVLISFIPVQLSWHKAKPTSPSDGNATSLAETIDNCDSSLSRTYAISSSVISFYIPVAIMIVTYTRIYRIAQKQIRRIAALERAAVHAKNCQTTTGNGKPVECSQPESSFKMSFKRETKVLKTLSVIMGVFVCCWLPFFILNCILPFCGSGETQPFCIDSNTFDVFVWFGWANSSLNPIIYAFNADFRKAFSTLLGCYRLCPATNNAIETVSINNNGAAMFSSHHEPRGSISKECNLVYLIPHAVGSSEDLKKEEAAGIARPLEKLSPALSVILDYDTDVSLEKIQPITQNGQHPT

N#Cc1c(N)nc2c(c1-c1ccco1)CCCCC2
IC50 [1]: > 93.1 µM (not active)

CC(=O)Nc1ccc(SCC(=O)c2cc(C)n(CCc3cccs3)c2C)cc1
EC50 [2]: 2 µM (active)

CCCn1cnc2cc(NCc3ccccn3)ccc21
IC50 (Nonstructural protein 1): > 100 µM (active)
IC50 (cells): > 67.5 µM (inactive)
IC50 [3]: > 67.5 µM (inactive)
IC50 (Protein Tat): > 100 µM (active)
IC50 [4]: > 100 µM (active)

Oc1ccc(O)cc1 [HYDROQUINONE]
IC50 (Large T antigen): 7.76 µM (active)
IC50 [5]: > 33.3 µM (inactive)
IC50 [6]: 1.01 µM (active)
IC50 [7]: > 40 µM (inactive)

C=CCn1c(SCC(=O)N2N=C(c3ccco3)CC2c2ccco2)nnc1-c1ccncc1 (stereo not given)
IC50 [8]: > 50 µM (not active)

Clc1ccc(CN2CCO[C@H](CCc3ccccc3)C2)cc1
IC50 (D(3) dopamine receptor): 20 µM (inactive)
IC50 (D(1A) dopamine receptor): 20 µM (inactive)
IC50 (D(1B) dopamine receptor): 20 µM (inactive)
IC50 (D(2) dopamine receptor): 20 µM (inactive)

Cc1ccc(NC(=O)CSc2nnc(C)c(=O)[nH]2)cc1C
IC50 (Leucine aminopeptidase): 3.51 µM (active)
IC50 (Aspartyl aminopeptidase): > 73.5 µM (not active)
IC50 (Procathepsin L): > 59.6 µM (not active)

O=C(Cn1cnc2c(nnn2Cc2ccc(F)cc2)c1=O)N1CCCc2ccccc21
IC50 [9]: 1.3 µM (active)

From ChEMBL document CHEMBL1201862, “PubChem BioAssay data set” (2004)
